Data on 41 molecules can be found in patent US20110251212A1, “PIPERAZINE DERIVATIVES” (SHIONOGI & CO., LTD., priority 2007, published 2011).

Test [1] concerns the target T1, NMDA Receptor (NR1/NR2B Receptor) (Rattus norvegicus, UniProt P35439+Q00960).
T1 construct: this was used as a membrane specimen in an experiment; from tissue; host or cells: rat cerebral cortex membranes
Kind of test: Experiment of binding to NMDA receptor (NR1/NR2B receptor), [3H]-Ifenprodil competition, rat cerebral cortex membrane. To be noted: [3H]-Ifenprodil 5 nM, GBR-12909 3 μM, ice temperature 120 minutes. As to the method: Using Ifenprodil which is a NR1/NR2B subtype receptor-specific antagonist as a ligand, an experiment of receptor competition with a test compound was performed.
A male Slc:Wistar rat was used as an animal, a decapitated brain was isolated, and cerebral cortex was fractionated. The cerebral cortex was homogenized with a 20-fold amount of an ice-cooled 50 mM Tris/HCl buffer (pH 7.4), and centrifuged at 4° C. and 27,500×g for 10 minutes. The resulting precipitate was suspended in the same buffer, and the suspension was centrifuged again. This procedure was repeated three times, and the resulting precipitate was suspended in a buffer, and stored at −80° C. Immediately before an experiment, the frozen suspension was thawed at room temperature, and centrifuged at 4° C. and 27,500×g for 10 minutes, and the resulting precipitate was suspended in a buffer. The suspension was further diluted 10-fold with a buffer, and this was used as a membrane specimen in an experiment.
In a binding experiment, to 470 μl of the membrane specimen were added 10 μl of different concentrations of a test compound, 10 μl of a labeled ligand [3H]-Ifenprodil and 10 μl of GBR-12909, and this was incubated at an ice temperature for 120 minutes. A concentration of [3H]-Ifenprodil of the labeled ligand was finally 5 nM, and a concentration of GBR-12909 was finally 3 μM. For measuring a total binding amount, DMSO as a solvent was used and, for measuring a non-specific binding amount, 100 μM of Ifenprodil was used. In addition, GBR-12909 was added in order to block binding of [3H]-Ifenprodil to a non-polyamine-sensitive site. After incubation, a bound body and a free body were separated using a Whatman GF/C filter (manufactured by Whatman), and the filter was washed with 2.5 ml of an ice-cooled buffer four times. The filter was immersed in a liquid scintillation (Clear-sol I, manufactured by Nacalai tesque) in a vial bottle, and radioactivity (dpm) was measured with a liquid scintillation counter. From a measured value, a binding inhibition rate (%) was obtained by the following equation, and a dose at which binding is inhibited 50% (IC50) was calculated. A formula of GBR-12909 (Vanoxerine) is shown below.
Binding inhibition rate(%)=100−[(binding amount in presence of test compound−non-specific amount)/(total binding amount−non-specific binding amount)]×100

In test [2] the target is T2, mouse NMDA receptor (NR1 subunit and NR2B subunit co-expressed in HEK293 cells) (Mus musculus, UniProt P35438+Q01097).
T2 construct: expressed in transfected cells; host or cells: HEK293 cells, transient, pcDNA 3.1 plasmids
The experiment in a line: Expression of NMDA receptor and measurement of Ca ion flow in amount (HEK293 cells, Fluo-3/AM, FDSS3000). Type of test: cell-based. To be noted: Ca ion flow in induced with glutamic acid 20 μM/glycine 2 μM, read-out: Ca2+ 1050. As to the method: Test Example 2 Expression of NMDA receptor and measurement of Ca ion flow in amount
A complementary DNA (cDNA) of a mouse NMDA receptor subunit was transiently introduced into HEK293 cells and, after one day from introduction, change in a glutamic acid/glycine-induced intracellular Ca amount was measured using a Ca ion reactive fluorescent dye.
HEK293 cells were cultured and passaged using a modified Dulbecco's Eagle medium (DMEM, low glucose).
20,000/well of HEK293 cells were seeded on a 96-well plate, a NR1 subunit and a NR2B subunit of a NMDA receptor incorporated into pcDNA 3.1 plasmid were transiently introduced into cells, and co-expression of subunits was performed. An introduction amount of a DNA was such that the NR1 subunit was 0.025 μg, and the NR2B subunit was 0.075 μg per well. For cells after introduction, cell death was inhibited using 50 μM of a NMDA receptor antagonist MK-801.
For adjusting a test compound and washing cells, Krebs Ringer Hepes buffer (KRH, Ca: 5 mM) was used.
One day after introduction, the NMDA receptor antagonist MK-801 was washed off using the KRH buffer, and a Ca ion indicative fluorescent dye Fluo-3/AM was made to be taken into cells. Flow in of a Ca ion was induced with glutamic acid 20 μM/glycine 2 μM. Change in a fluorescence amount due to intracellular Ca ion flow in was measured at excitation 480 nm using a fluorescence imaging system FDSS3000.
From a measured value of the test compound, a Ca ion flow in inhibitory rate (%) was obtained by the following equation, and a dose at which flow in is 50% inhibited (IC50) was calculated.
Ca ion flow in inhibitory rate(%)=100−[(fluorescence amount in presence of test compound−background fluorescence amount)/(total fluorescence amount[…]background fluorescence amount)]×100

T2 sequence (Q01097 27-1482, other chains not shown): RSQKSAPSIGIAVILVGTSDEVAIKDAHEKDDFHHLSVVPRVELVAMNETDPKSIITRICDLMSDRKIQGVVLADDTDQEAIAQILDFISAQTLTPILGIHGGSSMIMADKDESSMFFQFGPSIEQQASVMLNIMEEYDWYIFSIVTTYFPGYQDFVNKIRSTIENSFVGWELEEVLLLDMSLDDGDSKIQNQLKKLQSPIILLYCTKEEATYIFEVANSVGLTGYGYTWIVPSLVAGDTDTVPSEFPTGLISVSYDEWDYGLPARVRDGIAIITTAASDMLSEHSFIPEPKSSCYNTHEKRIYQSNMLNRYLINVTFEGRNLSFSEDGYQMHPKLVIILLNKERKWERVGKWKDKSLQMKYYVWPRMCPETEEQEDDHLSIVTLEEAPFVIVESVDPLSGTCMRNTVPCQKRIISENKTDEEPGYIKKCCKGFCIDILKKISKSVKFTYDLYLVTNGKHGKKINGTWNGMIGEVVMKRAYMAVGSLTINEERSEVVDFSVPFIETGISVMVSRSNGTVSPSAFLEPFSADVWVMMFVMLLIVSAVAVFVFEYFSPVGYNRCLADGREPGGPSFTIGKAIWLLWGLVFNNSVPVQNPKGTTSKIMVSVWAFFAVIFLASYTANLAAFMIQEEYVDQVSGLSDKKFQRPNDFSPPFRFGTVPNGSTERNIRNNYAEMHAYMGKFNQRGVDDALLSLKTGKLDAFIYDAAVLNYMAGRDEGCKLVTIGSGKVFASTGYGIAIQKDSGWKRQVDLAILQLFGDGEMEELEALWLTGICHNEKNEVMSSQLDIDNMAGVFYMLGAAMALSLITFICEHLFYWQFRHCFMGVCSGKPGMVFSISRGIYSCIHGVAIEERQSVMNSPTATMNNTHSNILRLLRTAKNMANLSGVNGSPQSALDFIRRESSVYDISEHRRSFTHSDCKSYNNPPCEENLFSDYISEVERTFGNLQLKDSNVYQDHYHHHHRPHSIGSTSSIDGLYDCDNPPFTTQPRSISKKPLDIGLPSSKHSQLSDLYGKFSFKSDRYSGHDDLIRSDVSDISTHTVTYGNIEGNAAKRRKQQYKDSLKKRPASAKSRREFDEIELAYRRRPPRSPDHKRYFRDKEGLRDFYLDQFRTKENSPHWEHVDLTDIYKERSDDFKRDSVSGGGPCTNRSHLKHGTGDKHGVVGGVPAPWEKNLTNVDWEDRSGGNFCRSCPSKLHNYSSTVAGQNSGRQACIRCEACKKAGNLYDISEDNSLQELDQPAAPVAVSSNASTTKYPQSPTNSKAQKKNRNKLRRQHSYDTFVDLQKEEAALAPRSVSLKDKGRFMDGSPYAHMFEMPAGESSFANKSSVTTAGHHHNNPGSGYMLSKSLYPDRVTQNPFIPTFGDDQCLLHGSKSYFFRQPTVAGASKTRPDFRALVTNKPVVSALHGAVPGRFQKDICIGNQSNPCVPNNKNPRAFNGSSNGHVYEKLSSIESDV
T1 sequence (Q00960 27-1482, other chains not shown): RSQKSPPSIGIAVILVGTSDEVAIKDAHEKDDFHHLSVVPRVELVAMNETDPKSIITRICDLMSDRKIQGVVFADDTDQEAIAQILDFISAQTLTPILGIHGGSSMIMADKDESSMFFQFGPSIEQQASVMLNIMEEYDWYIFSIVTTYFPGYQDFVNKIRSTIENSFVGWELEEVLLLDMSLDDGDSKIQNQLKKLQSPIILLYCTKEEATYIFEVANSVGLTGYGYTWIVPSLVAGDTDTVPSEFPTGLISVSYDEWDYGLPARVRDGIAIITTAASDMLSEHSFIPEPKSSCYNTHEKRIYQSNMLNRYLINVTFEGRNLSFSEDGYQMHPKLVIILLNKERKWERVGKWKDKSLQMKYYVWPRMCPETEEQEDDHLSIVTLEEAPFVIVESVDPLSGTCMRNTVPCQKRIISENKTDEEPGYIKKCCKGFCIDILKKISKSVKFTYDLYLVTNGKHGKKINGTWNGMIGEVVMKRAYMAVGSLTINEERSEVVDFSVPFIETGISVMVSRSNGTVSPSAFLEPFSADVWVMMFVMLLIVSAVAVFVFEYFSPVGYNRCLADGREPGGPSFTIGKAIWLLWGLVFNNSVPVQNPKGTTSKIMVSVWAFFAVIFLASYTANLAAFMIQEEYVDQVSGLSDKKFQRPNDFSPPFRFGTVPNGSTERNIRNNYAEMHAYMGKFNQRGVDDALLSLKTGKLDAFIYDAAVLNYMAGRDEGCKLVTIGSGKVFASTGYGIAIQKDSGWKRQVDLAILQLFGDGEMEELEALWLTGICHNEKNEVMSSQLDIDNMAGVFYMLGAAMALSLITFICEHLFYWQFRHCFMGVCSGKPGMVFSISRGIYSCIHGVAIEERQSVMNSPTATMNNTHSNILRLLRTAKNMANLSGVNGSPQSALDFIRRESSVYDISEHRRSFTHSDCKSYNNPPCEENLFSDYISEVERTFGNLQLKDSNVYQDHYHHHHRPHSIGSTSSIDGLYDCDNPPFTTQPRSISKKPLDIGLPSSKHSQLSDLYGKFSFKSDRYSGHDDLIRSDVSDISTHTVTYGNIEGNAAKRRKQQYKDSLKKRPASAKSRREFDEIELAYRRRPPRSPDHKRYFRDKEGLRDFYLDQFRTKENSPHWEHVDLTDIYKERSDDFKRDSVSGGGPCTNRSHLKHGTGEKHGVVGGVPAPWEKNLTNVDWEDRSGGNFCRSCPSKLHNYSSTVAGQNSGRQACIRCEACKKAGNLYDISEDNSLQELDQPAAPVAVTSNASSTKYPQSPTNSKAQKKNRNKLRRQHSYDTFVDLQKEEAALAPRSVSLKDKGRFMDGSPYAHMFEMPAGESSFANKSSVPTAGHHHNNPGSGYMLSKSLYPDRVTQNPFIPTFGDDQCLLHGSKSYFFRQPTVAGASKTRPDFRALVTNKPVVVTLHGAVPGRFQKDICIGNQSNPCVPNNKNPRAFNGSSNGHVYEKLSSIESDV

Take `C[C@@H]1CN(C(=O)CNc2ccc3[nH]c(=O)oc3c2)CCN1c1ccc(Cl)cc1` [Compound I-16]: the IC50 came to 0.072 µM in test [1] and 12 nM in test [2].

Turning to `Cc1cc(N2CCN(C(=O)C(=O)Nc3ccc4[nH]c(=O)oc4c3)CC2)ccc1Cl` [Compound I-37], the IC50 in test [1] turned out to be 0.029 µM; in test [2], 9 nM. In the case of `Cc1cc(N2CCN(C(=O)C(=O)Nc3ccc4[nH]c(=O)oc4c3)[C@H](C)C2)ccc1F` [Compound I-45], the IC50 in test [2] came to 57 nM. Still for that read-out and setting: in the case of `Cc1cc(N2CCN(C(=O)C(=O)Nc3ccc4[nH]c(=O)oc4c3)C[C@H]2C)ccc1F` [Compound I-49] it was 19 nM; in that of `C[C@@H]1CN(c2cc(F)cc(F)c2)CCN1C(=O)C(=O)Nc1ccc2[nH]c(=O)oc2c1` [Compound I-14], 48 nM. Take `Cc1ccc(N2CCN(C(=O)C(=O)Nc3ccc4[nH]c(=O)oc4c3)C[C@H]2C)cc1Cl` [Compound I-39]: the IC50 worked out at 0.08 µM in test [1] and 9 nM in test [2].

`Cc1cc(N2CCN(C(=O)C(=O)Nc3ccc4[nH]c(=O)oc4c3)CC2)ccc1F` [Compound I-46]: the IC50 in test [2] is 83 nM. On to `C[C@@H]1CN(CC(=O)Nc2ccc3[nH]c(=O)oc3c2)CCN1c1ccc(Cl)cc1` [Compound I-59], for which the IC50 in test [1] was found to be 0.042 µM; in test [2] it was 6 nM.

As for `Cc1ccc(N2CCN(C(=O)C(=O)Nc3ccc4[nH]c(=O)oc4c3)CC2)cc1F` [Compound I-26], the IC50 was 0.014 µM in test [1] and 7 nM in test [2].

`COc1c(F)cc(N2CCN(CC(=O)Nc3ccc4[nH]c(=O)oc4c3)CC2)cc1F` [Compound I-56]: the values for the IC50 in test [1] and in test [2] were 0.044 µM and 12 nM, respectively. In the case of `C[C@@H]1CN(C(=O)CNc2ccc3[nH]c(=O)oc3c2)CCN1c1ccc(OC(F)(F)F)cc1` [Compound I-30], the IC50 in test [2] amounted to 31 nM. On the same count and under the same terms, in the case of `COCc1ccc(N2CCN(C(=O)C(=O)Nc3ccc4[nH]c(=O)oc4c3)C[C@H]2C)cc1` [Compound I-20] it was 41 nM. As for `Cc1ccc(N2CCN(C(=O)C(=O)Nc3ccc4[nH]c(=O)oc4c3)CC2)cc1Cl` [Compound I-35], the IC50 in test [1] turned out to be 0.02 µM; in test [2], 9 nM. For `Cc1ccc(N2CCN(C(=O)C(=O)Nc3ccc4[nH]c(=O)oc4c3)CC2)cc1` [Compound I-18], in that order: 0.107 µM and 48 nM. The corresponding values for `CC[C@@H]1CN(C(=O)C(=O)Nc2ccc3[nH]c(=O)oc3c2)CCN1c1ccc(Cl)cc1` [Compound I-51] are 0.09 µM and 5 nM.

For the molecule `C[C@@H]1CN(c2ccc(OCC(F)(F)F)cc2)CCN1C(=O)C(=O)Nc1ccc2[nH]c(=O)oc2c1` [Compound I-24], the IC50 is 0.105 µM in test [1] and 19 nM in test [2]. Consider `COc1c(F)cc(N2CCN(CC(=O)Nc3ccc4[nH]c(=O)oc4c3)C[C@H]2C)cc1F` [Compound I-57], for which the IC50 in test [1] stood at 0.056 µM; in test [2], 4 nM.

Turning to `C[C@@H]1CN(C(=O)C(=O)Nc2ccc3[nH]c(=O)oc3c2)CCN1c1cc(F)cc(F)c1` [Compound I-13], the IC50 in test [1] is 0.114 µM; in test [2], 14 nM. The corresponding values for `CC[C@@H]1CN(c2ccc(Cl)cc2)CCN1C(=O)C(=O)Nc1ccc2[nH]c(=O)oc2c1` [Compound I-52] are 0.081 µM and 8 nM. For `C[C@@H]1CN(C(=O)C(=O)Nc2ccc3[nH]c(=O)oc3c2)CCN1c1ccc(OCC(F)(F)F)cc1` [Compound I-23], the IC50 in test [2] was 22 nM.

Regarding `Cc1ccc(N2CCN(C(=O)C(=O)Nc3ccc4[nH]c(=O)oc4c3)[C@H](C)C2)cc1Cl` [Compound I-38], the IC50 was found to be 0.041 µM in test [1] and 7 nM in test [2].

With `C[C@@H]1CN(C(=O)CNc2ccc3[nH]c(=O)oc3c2)CCN1c1ccc(Cl)c(F)c1` [Compound I-17], the IC50 in test [1] worked out at 0.024 µM; in test [2] it was 3 nM. The corresponding values for `Cc1cc(N2CCN(CC(=O)Nc3ccc4[nH]c(=O)oc4c3)C[C@H]2C)ccc1Cl` [Compound I-60] are 0.08 µM and 10 nM.

Turning to `C[C@@H]1CN(CC(=O)Nc2ccc3[nH]c(=O)oc3c2)CCN1c1ccc(Cl)c(F)c1` [Compound I-55], the IC50 in test [1] was 0.033 µM; in test [2], 4 nM. In the case of `O=C(Nc1ccc2[nH]c(=O)oc2c1)C(=O)N1CCN(c2cc(F)cc(F)c2)CC1` [Compound I-12], the IC50 in test [2] is 108 nM. With `Cc1ccc(N2CCN(C(=O)C(=O)Nc3ccc4[nH]c(=O)oc4c3)[C@H](C)C2)cc1F` [Compound I-27], the IC50 is 0.035 µM in test [1] and 2 nM in test [2].

Turning to `C[C@@H]1CN(c2ccc(F)c(Cl)c2)CCN1CC(=O)Nc1ccc2[nH]c(=O)oc2c1` [Compound I-54], the IC50 in test [2] is 52 nM. Take `C[C@@H]1CN(C(=O)C(=O)Nc2cnc3[nH]c(=O)oc3c2)CCN1c1ccc(OC(F)(F)F)cc1` [Compound I-25]: the IC50 in test [2] was 9 nM.

In the case of `C[C@@H]1CN(c2ccc(Cl)cc2)CCN1C(=O)CNc1ccc2[nH]c(=O)oc2c1` [Compound I-15], the IC50 in test [1] is 0.039 µM; in test [2], 5 nM.

Molecule `C[C@@H]1CN(c2ccc(OC(F)(F)F)cc2)CCN1C(=O)CNc1ccc2[nH]c(=O)oc2c1` [Compound I-36] displayed an IC50 in test [1] of 0.071 µM.

Turning to `COCc1ccc(N2CCN(C(=O)C(=O)Nc3ccc4[nH]c(=O)oc4c3)[C@H](C)C2)cc1` [Compound I-32], the IC50 in test [2] came out at 105 nM. In the case of `C[C@@H]1CN(c2ccc(Cl)cc2)CCN1CC(=O)Nc1ccc2[nH]c(=O)oc2c1` [Compound I-53], the results for the IC50 in test [1] and in test [2] were 0.134 µM and 33 nM, respectively. Regarding `Cc1ccc(N2CCN(C(=O)C(=O)Nc3ccc4[nH]c(=O)oc4c3)C[C@H]2C)cc1` [Compound I-29], the values for the IC50 in test [1] and in test [2] were 0.129 µM and 9 nM, respectively. In the case of `Cc1ccc(N2CCN(C(=O)C(=O)Nc3ccc4[nH]c(=O)oc4c3)C[C@H]2C)cc1F` [Compound I-28], the IC50 turned out to be 0.068 µM in test [1] and 3 nM in test [2]. As to `CO/N=C/c1ccc(N2CCN(C(=O)C(=O)Nc3ccc4[nH]c(=O)oc4c3)[C@H](C)C2)cc1` [Compound I-31], the IC50 in test [2] was found to be 106 nM. Consider `COCc1ccc(N2CCN(C(=O)C(=O)Nc3ccc4[nH]c(=O)oc4c3)[C@H](C)C2)cc1F` [Compound I-34], for which the IC50 in test [1] turned out to be 0.099 µM; in test [2], 32 nM. For `Cc1cc(N2CCN(C(=O)C(=O)Nc3ccc4[nH]c(=O)oc4c3)C[C@H]2C)ccc1Cl` [Compound I-41], in that order: 0.067 µM and 5 nM.

As for `O=C(Nc1ccc2[nH]c(=O)oc2c1)C(=O)N1CCN(c2ccc(OCC(F)(F)F)cc2)CC1` [Compound I-21], in test [2], the IC50 came to 47 nM. Turning to `O=C(NCCN1CCN(c2ccc(Cl)cc2)CC1)c1ccc2[nH]c(=O)oc2c1` [Compound I-65], the IC50 turned out to be 0.026 µM in test [1] and 10 nM in test [2].

Turning to `Cc1ccc(N2CCN(C(=O)C(=O)Nc3ccc4[nH]c(=O)oc4c3)[C@H](C)C2)cc1` [Compound I-22], the results for the IC50 in test [1] and in test [2] were 0.085 µM and 22 nM, respectively. For `COc1c(F)cc(N2CCN(C(=O)CNc3ccc4[nH]c(=O)oc4c3)C[C@H]2C)cc1F` [Compound I-43], in that order: 0.065 µM and 21 nM.
